By IC50 is commonly meant the concentration that gives 50% inhibition. A low value points to greater potency.

IC50 data for 18 molecules are collected here from ChEMBL document CHEMBL1132573, “Novel antitumor 2-cyanoaziridine-1-carboxamides” (J Med Chem, 1999).

What all share (format): functional, cell-based
One test concerns A-375. As to the kind of experiment: Inhibition of cell growth in (A375) melan cell line. The following applies: Homo sapiens.
For test [1], the system named is L1210. Put plainly: Inhibition of cell growth in (L1210 leukemia) MDR cells determined by MTT assay. The following applies: Mus musculus.
Test [2] relates to L1210. Put plainly: Inhibition of cell growth in drug sensitive L1210 leukemia cell line determined by MTT assay. The following applies: Mus musculus. For orientation: Formazan colour is commonly taken as a measure of viable cells.
The subject of test [3] is MCF7. Put plainly: Inhibition of cell growth in (MCF7 breast) dox cell line. The following applies: Homo sapiens.
The subject of test [4] is MCF7. Put plainly: Inhibition of cell growth in (MCF7 breast) mitox cell line. The following applies: Homo sapiens.
In test [5] the test system is MCF7. As to the kind of experiment: Inhibition of cell growth in drug sensitive MCF-7 breast cell line. The following applies: Homo sapiens.
The subject of a further test is OVCAR-3. Put plainly: Inhibition of cell growth in (OVCAR-3) ovarian cell line. The following applies: Homo sapiens.
In test [6] the test system is RPMI-8226. Put plainly: Inhibition of cell growth in drug resistant 8226 myeloma cell line. The following applies: Homo sapiens.
Test [7] deals with RPMI-8226. As to the kind of experiment: Inhibition of cell growth in drug sensitive 8226 myeloma cell line. The following applies: Homo sapiens.
A further test has as its system A549. Put plainly: Inhibition of cell growth in (A-549) lung cell line. The following applies: Homo sapiens.
In test [8] the test system is WiDr. Put plainly: Inhibition of cell growth in drug resistant WiDr colon cell line. The following applies: Homo sapiens.
Test [9] has as its system WiDr. Put plainly: Inhibition of cell growth in drug sensitive WiDr colon cell line. The following applies: Homo sapiens.

With `N#CC1CN1C(N)=O` (stereo unspecified), the IC50 in the test on A-375 was above 90 µM; with L1210 [1], above 90 µM; in the test on L1210 [2] it was above 90 µM; in the test with MCF7 [3] it was above 54 µM; in the test on MCF7 [4], above 54 µM; with MCF7 [5], above 54 µM. Further, the IC50 in the test with OVCAR-3 is above 90 µM.

For the molecule `CNC(=O)N1CC1C#N` (stereo unspecified), the IC50 in the test on RPMI-8226 [6] was determined as 26 µM; in the test on RPMI-8226 [7], 26 µM; in the test with A549, 22 µM; with A-375, 17 µM; in the test with L1210 [1], 21 µM; in the test with L1210 [2] it was 8.7 µM. Besides, the IC50 with MCF7 [3] is 17 µM; with MCF7 [4], 18 µM; in the test with MCF7 [5] it was 27 µM; in the test with OVCAR-3, 14 µM; in the test on WiDr [8], 23 µM; with WiDr [9], 21 µM.

As to `N#CC1CN1C(=O)Nc1ccc([N+](=O)[O-])cc1` (stereo unspecified), the IC50 in the test with RPMI-8226 [6] stood at 8.6 µM; with RPMI-8226 [7], 9.1 µM; with A549 it was 3.9 µM; in the test on A-375, 3.9 µM; with L1210 [1], 2.6 µM; in the test on L1210 [2], 2.6 µM. Moreover, the IC50 with MCF7 [3] came out at 3 µM; with MCF7 [4] it was 3 µM; in the test on MCF7 [5] it was 3 µM; with OVCAR-3, 6.5 µM; with WiDr [8] it was 3.7 µM; in the test with WiDr [9], 4.3 µM.

Regarding `N#CC1CN1C(=O)Nc1ccc(Cl)cc1Cl` (stereo unspecified), the IC50 in the test with RPMI-8226 [6] was 9.4 µM; with RPMI-8226 [7], 4.7 µM; in the test with A549, 2.5 µM; with A-375 it was above 39 µM; in the test on L1210 [1], 33 µM; in the test on L1210 [2], 207 µM. In addition, the IC50 was 1.1 µM in the test on MCF7 [3]; 0.35 µM in the test with MCF7 [4]; 0.9 µM in the test on MCF7 [5]; 35 µM with OVCAR-3; 1.9 µM in the test on WiDr [8]; 2.2 µM in the test with WiDr [9].

For `N#CC1CN1C(=O)NCc1ccccc1` (stereo unspecified), the IC50 in the test with RPMI-8226 [6] amounted to 11 µM; in the test with RPMI-8226 [7], 9 µM; in the test on A549 it was 7.4 µM; in the test with A-375, 11 µM; in the test with L1210 [1] it was 10 µM; in the test with L1210 [2], 3.8 µM. Also, the IC50 in the test on MCF7 [3] was 6 µM; in the test on MCF7 [4], 3.4 µM; with MCF7 [5], 7.4 µM; with OVCAR-3, 5 µM; with WiDr [8] it was 10 µM; in the test with WiDr [9] it was 5.3 µM.

For `N#CC1CN1C(=O)Nc1cccnc1` (stereo unspecified), the IC50 in the test with RPMI-8226 [6] came to 15 µM; in the test on RPMI-8226 [7], 12 µM; with A549, 16 µM; with A-375, 12 µM; in the test on L1210 [1], 16 µM; in the test with L1210 [2], 11 µM. Besides, the IC50 with MCF7 [3] came to 6.6 µM; with MCF7 [4], 5.4 µM; with MCF7 [5], 4.2 µM; with OVCAR-3, 10 µM; with WiDr [8] it was 18 µM; in the test with WiDr [9], 6 µM.

Consider `N#CC1CN1C(=O)Nc1ccc(S(N)(=O)=O)cc1` (stereo unspecified), for which the IC50 was above 38 µM with RPMI-8226 [6]; above 38 µM in the test with RPMI-8226 [7]; above 38 µM in the test with A549; 188 µM in the test with A-375; above 38 µM in the test with L1210 [1]; above 38 µM in the test with L1210 [2]. Also, the IC50 in the test with MCF7 [3] was above 15 µM; in the test with MCF7 [4], above 15 µM; in the test with MCF7 [5], above 15 µM; in the test on OVCAR-3, 188 µM; in the test on WiDr [8], above 38 µM; in the test on WiDr [9], above 38 µM.

For the molecule `N#CC1CN1C(=O)Nc1ccc(F)cc1` (stereo unspecified), the IC50 is 5.9 µM in the test with RPMI-8226 [6]; 5 µM in the test on RPMI-8226 [7]; 6.2 µM in the test with A549; 3.4 µM with A-375; 5.9 µM in the test with L1210 [1]; 7.3 µM in the test with L1210 [2]. Also, the IC50 in the test on MCF7 [3] came to 2.4 µM; in the test with MCF7 [4], 2.7 µM; in the test on MCF7 [5], 1.9 µM; with OVCAR-3, 5.9 µM; in the test with WiDr [8], 9 µM; in the test on WiDr [9], 2.1 µM.

As to `N#CC1CN1C(=O)NC1CCCCC1` (stereo unspecified), the IC50 in the test with RPMI-8226 [6] stood at 98 µM; with RPMI-8226 [7], 36 µM; in the test on A549 it was 10 µM; in the test on A-375, 35 µM; with L1210 [1], 16 µM; with L1210 [2] it was 7.4 µM. Moreover, the IC50 in the test on MCF7 [3] worked out at 8.9 µM; with MCF7 [4], 9.8 µM; in the test with MCF7 [5], 13 µM; with OVCAR-3, 31 µM; in the test on WiDr [8], 12 µM; with WiDr [9], 2.4 µM.

Consider `N#CC1CN1C(=O)Nc1ccc(Cl)c(Cl)c1` (stereo unspecified), for which the concentration for half-maximal inhibition (IC50) in the test with RPMI-8226 [6] is 2.7 µM; with RPMI-8226 [7], 1.1 µM; in the test on A549, 7.5 µM; with A-375, 5.9 µM; with L1210 [1], 7.2 µM; in the test with L1210 [2] it was 2.6 µM. The IC50 with MCF7 [3] came out at 7.2 µM; in the test with MCF7 [4], 4.4 µM; in the test on MCF7 [5], 4.6 µM; in the test with OVCAR-3, 5.6 µM; in the test with WiDr [8], 14 µM; with WiDr [9] it was 7 µM.

On to `N#CC1CN1C(=O)Nc1cccc2ccccc12` (stereo unspecified), for which the IC50 is 8.9 µM with RPMI-8226 [6]; 8 µM with RPMI-8226 [7]; 2.5 µM in the test on A549; 4.2 µM in the test with A-375; 2.5 µM in the test with L1210 [1]; 7.2 µM in the test on L1210 [2]. Besides, the IC50 in the test on MCF7 [3] turned out to be 1.7 µM; with MCF7 [4], 2 µM; in the test with MCF7 [5], 2 µM; in the test with OVCAR-3, 5.9 µM; in the test with WiDr [8] it was 2.5 µM; with WiDr [9] it was 2.4 µM.

For `CC(=O)c1cccc(NC(=O)N2CC2C#N)c1` (stereo unspecified), the IC50 with RPMI-8226 [6] amounted to 9.6 µM; with RPMI-8226 [7], 8.7 µM; in the test with A549 it was 5.6 µM; in the test with A-375, 7.9 µM; with L1210 [1] it was 7.9 µM; in the test on L1210 [2] it was 9.6 µM. Also, the IC50 was found to be 3.2 µM in the test on MCF7 [3]; 3.5 µM with MCF7 [4]; 3.6 µM in the test on MCF7 [5]; 10 µM in the test on OVCAR-3; 9 µM in the test with WiDr [8]; 3.3 µM with WiDr [9].

Turning to `CC(C)(C)NC(=O)N1CC1C#N` (stereo unspecified), the IC50 in the test on RPMI-8226 [6] is 216 µM; with RPMI-8226 [7], 120 µM; in the test with A549, 180 µM; in the test on A-375, 418 µM; with L1210 [1], 457 µM; in the test on L1210 [2], 132 µM. In addition, the IC50 with MCF7 [3] is 190 µM; in the test on MCF7 [4] it was 120 µM; in the test on MCF7 [5], above 300 µM; in the test with OVCAR-3, 186 µM; in the test on WiDr [8] it was above 300 µM; in the test with WiDr [9], 180 µM.

For `CCCCNC(=O)N1CC1C#N` (stereo unspecified), the IC50 with RPMI-8226 [6] worked out at 17 µM; with RPMI-8226 [7], 17 µM; in the test with A549 it was 18 µM; with A-375, 15 µM; with L1210 [1], 12 µM; in the test with L1210 [2], 12 µM. The IC50 in the test on MCF7 [3] was 6.7 µM; with MCF7 [4], above 12 µM; with MCF7 [5], above 12 µM; in the test on OVCAR-3, 12 µM; with WiDr [8], 18 µM; with WiDr [9], 14 µM.

With `CCNC(=O)N1CC1C#N` (stereo unspecified), the IC50 in the test with RPMI-8226 [6] is 26 µM; with RPMI-8226 [7], 22 µM; in the test with A549 it was 18 µM; in the test with A-375, 36 µM; in the test on L1210 [1], 14 µM; in the test on L1210 [2], 14 µM. The IC50 was found to be 20 µM in the test with MCF7 [3]; 10 µM in the test with MCF7 [4]; 29 µM in the test on MCF7 [5]; 14 µM in the test on OVCAR-3; 7 µM in the test with WiDr [8]; 4 µM with WiDr [9].

Regarding `COC(=O)c1ccccc1NC(=O)N1CC1C#N` (stereo unspecified), the IC50 with RPMI-8226 [6] was above 39 µM; with RPMI-8226 [7] it was above 39 µM; in the test on A549, above 41 µM; in the test with A-375, above 39 µM; with L1210 [1] it was above 39 µM; in the test on L1210 [2], above 39 µM. Besides, the IC50 in the test with MCF7 [3] is above 16 µM; in the test with MCF7 [4] it was above 16 µM; with MCF7 [5] it was above 16 µM; in the test with OVCAR-3 it was above 39 µM; with WiDr [8], above 41 µM; in the test on WiDr [9], 40 µM.

For `N#CC1CN1C(=O)Nc1ccc(C(F)(F)F)cc1` (stereo unspecified), the IC50 was 7.8 µM in the test on RPMI-8226 [6]; 8.2 µM with RPMI-8226 [7]; 4.3 µM with A549; 11.8 µM in the test on A-375; 7.1 µM with L1210 [1]; 7.8 µM with L1210 [2]. Moreover, the IC50 in the test with MCF7 [3] was 1.4 µM; in the test on MCF7 [4], 1.3 µM; in the test on MCF7 [5] it was 1.5 µM; with OVCAR-3, 5.9 µM; in the test on WiDr [8], 5.8 µM; in the test with WiDr [9] it was 1.3 µM.

Turning to `CCOC(=O)c1ccc(NC(=O)N2CC2C#N)cc1` (stereo unspecified), the IC50 with RPMI-8226 [6] stood at 3 µM; in the test on RPMI-8226 [7], 3 µM; with A549, 2.9 µM; in the test on A-375, 5.8 µM; in the test on L1210 [1], 9.7 µM; in the test with L1210 [2] it was 9.7 µM. Moreover, the IC50 in the test on MCF7 [3] was 2.1 µM; in the test on MCF7 [4] it was 3.3 µM; with MCF7 [5], 2.3 µM; in the test on OVCAR-3, 7.7 µM; in the test on WiDr [8] it was 4.2 µM; with WiDr [9] it was 2.5 µM.
